According to patent US20060116392A1, “Methods for treating anxiety disorders and related article of manufacture” (priority 2004, published 2006):

Experiments:
morphine CPP [1] = assay: Induction of morphine conditioned place preference (CPP); inhibitor given after conditioning; format: in vivo, Long Evans rats; details: for CPP score (time spent in drug associated-chamber), mean±SEM: single s.c. dose at end of four-day conditioning, anisomycin and cycloheximide groups combined; for effect on morphine CPP: single s.c. dose at the end of four-day conditioning, tested at 24 hours
Procedure: . CPP was tested after 24 hours. To determine whether the effect was stable, the animals were retested 1 week later.
(§1) Because both anisomycin and cycloheximide produced a similar effect, the CPP score of the two groups were combined. […] Further experimentation was needed to determine whether a more extended inhibition of protein synthesis was able to persistently block CPP. Groups of rats were treated as above but received two injections of cycloheximide, one immediately after the last conditioning session and the second 5 hours later. In parallel, the rates of protein synthesis inhibition, over time, following a single or double injection were established. […] With a double injection, 5 hours apart, the rate of protein synthesis inhibition at 6 hours was maintained at 71%. The results after two injections were similar to those after a single injection; in fact, the CPP of rats that received two injection of cycloheximide was inhibited at 24 hours, but recovered a week later (data not shown).
Experimentation was needed to test the possibility that blocking protein synthesis after each daily conditioning produced a stable loss of CPP. Groups of rats received an injection of either cycloheximide or vehicle every day at the end of each conditioning trial and were then tested 24 hours, 1 week and 4 weeks later. […] This inhibition persisted at 1 week (254.8±32.8 sec and 429.4±33.1 sec, respectively, p<0.01) and 4 weeks (243.3±21.8 sec and 416.8±31.4 sec, respectively, p<0.01) post-conditioning (FIG. 1B).
(§2) Adult Long Evans rats (200-250 grams) were used for all the experiments. On day 1, the rats received a single pre-exposure test in a box composed of two distinct compartments (Pre-conditioning). The time spent in each chamber over 10 minutes was recorded (unconditioned preference) and then the animals were returned to their homecages. Animals showing a strong unconditioned preference (>540 s) were discarded. On the subsequent 4 days, place preference conditioning was conducted using an unbiased procedure. In each experimental group, the animals received a subcutaneous injection of either morphine (10 mg/kg) or saline (vehicle solution). Half of both groups were confined for 30 minutes in the spontaneously preferred compartment and the other half in the non-preferred compartment. Testing consisted of allowing the animals free access to both chambers for 10 minutes and recording the amount of time that the animals spend in the conditioned chamber (CPP score). All protocols complied with the N.I.H. Guide for the Care and Use of Laboratory Animals and were approved by the Mount Sinai School of Medicine Animal care Committees.
(§3) Anisomycin and Cycloheximide were injected s.c. at 210 mg/Kg (Milekic and Alberini, 2002) and 2.8 mg/Kg (Squire et al., 1980), respectively. Anisomycin was dissolved as previously described (Milekic and Alberini, 2002). Cycloheximide was dissolved in DMSO and finally diluted in 1% DMSO/saline. Vehicle solutions were prepared accordingly.

morphine CPP [2] = assay: Maintenance of morphine CPP after contextual reactivation (Test 1); inhibitor given after recall; format: in vivo, Long Evans rats; details: for CPP score, mean±SEM: injection immediately after Test 1 (1 week after conditioning), Test 2, 24 hours later, cycloheximide and anisomycin scores combined; for change in CPP score: injection immediately after Test 1, re-tested 24 hours later (Test 2)
Procedure: The purpose of second set of experiments was to determine whether morphine CPP becomes labile if recalled. Groups of rats were conditioned to morphine for 4 days. […] This test recalled the experience (Test 1), or, in other words, reactivated CPP. Immediately after Test 1, half of the rats received an injection of cycloheximide or anisomycin and half were injected with vehicle. The animals were re-tested 24 hours later (Test 2). […] (Test1-vehicle: 394.4±42.6 sec; Test1-inhibitor: 387.8±25.8 sec; Test2-vehicle 413.3±35.9 sec; Test2-inhibitor 425.9±25.3 sec) (FIG. 2). Because both cycloheximide and anisomycin-treated rats performed similarly, their scores were combined.
as §2, §3

morphine CPP [3] = assay: Consolidated morphine CPP after a single reconditioning session; inhibitor given after reconditioning; format: in vivo, Long Evans rats
Text: However, it is important to consider that during morphine CPP, the drug may serve as an internal reinforcer and the animal experiences a strong reward. It remained unknown whether CPP may become labile if the rewarding state of the drug experience is concomitantly reactivated with the contextual cues (reconditioning). Therefore, it was examined whether a previously formed CPP becomes labile after a reconditioning session. Rats were conditioned to morphine for 4 days and, 1 week later, were exposed to another, single conditioning session. Immediately after this session, half of the animals received an injection of inhibitor (cycloheximide or anisomycin) and the other half of vehicle solution and were then all retested 24 hours and 1 week later.
It was then tested whether blocking protein synthesis after reconditioning for a longer time would result in a stable disruption of CPP. Groups of rats were treated as above but received two injections of cycloheximide, one immediately after reconditioning and the second 5 hours later, a protocol that, as described in the first set of experiments, block 70% of protein synthesis for several hours.
as §2, §3

morphine CPP [4] = assay: Morphine CPP, conditioning context omitted (injections in homecage); format: in vivo, Long Evans rats
Procedure: (3C) The conditioning context was omitted and rats (n=8) were injected in their home cage with morphine and 30 min later with cycloheximide at the same time point as in (3A) and (3B). CPP was tested 24 hr after injection (post-injection).
(3D) Rats were injected only with cycloheximide (n=9) in the home cage at the same time points as in (3A) and (3B) without receiving either morphine or exposure to the conditioning context. CPP was tested 24 hr after the last injection (post-injection).
To investigate whether the blocking effect of the inhibitors on CPP was context-specific, the conditioning context was omitted, that is morphine and cycloheximide were administered in the homecages at the same times after conditioning.
as §2
Anisomycin and Cycloheximide were injected s.c. at 210 mg/Kg (Milekic and Alberini, 2002) and 2.8 mg/Kg (Squire et al., 1980), respectively. Anisomycin was dissolved as previously described (Milekic and Alberini, 2002). […]

protein synthesis = assay: Inhibition of protein synthesis in brain (L-[35S]methionine incorporation); format: in vivo, rats
Procedure: as §1
Inhibition of protein synthesis was assessed according to Rosenblum et al. (1993) with modifications. Rats were injected with 125 μCi L-[^35S]methionine (i.p.) and immediately after received an injection of either protein synthesis inhibitors, (cycloheximide or anisomycin) or vehicle solution. The rats were sacrificed one hour after the last inhibitor injection. The brains were homogenized in 5 volumes of cold lysis buffer (1% SDS, 60 mM Tris.Cl pH 7.4, 62.4 mM imidazole, 40 mM DTT, 10% glycerol). The homogenates were boiled for 5 min and centrifuged at 18,000 g for 20 min at room temperature. Equal amount of proteins were precipitated with 20% TCA and the radioactivity was counted. The inhibition of protein synthesis was calculated as: [1−(CPMinhibitor/CPMvehicle)]×100.

[5] = single injection immediately after reconditioning, 1 week later, cycloheximide or anisomycin combined
[6] = single injection immediately after reconditioning, 24 hours after reconditioning, cycloheximide or anisomycin combined
[7] = injection every day at the end of each conditioning trial, 24 hours after conditioning

COc1ccc(C[C@H]2NC[C@H](O)[C@H]2OC(C)=O)cc1 [anisomycin]
CPP score (time spent in drug associated-chamber), mean±SEM (morphine CPP [1]; 24 hours): 280.1 ± 17.5 s
CPP score (time spent in drug associated-chamber), mean±SEM (morphine CPP [1]; re-tested 1 week later): 358.9 ± 28.0 s
effect on morphine CPP (morphine CPP [1]): completely blocked
CPP score, mean±SEM (morphine CPP [2]): 425.9 ± 25.3 s
change in CPP score (morphine CPP [2]): No change
CPP score, mean±SEM (morphine CPP [3]; [5]): 365.4 ± 45.1 s
CPP score, mean±SEM (morphine CPP [3]; [6]): 261.5 ± 33.9 s

C[C@@H]1C[C@@H]([C@H](O)CC2CC(=O)NC(=O)C2)C(=O)[C@@H](C)C1 [cycloheximide]
CPP score, mean±SEM (morphine CPP [1]; injection every day at the end of each conditioning trial, 1 week post-conditioning): 254.8 ± 32.8 s
CPP score, mean±SEM (morphine CPP [1]; injection every day at the end of each conditioning trial, 4 weeks post-conditioning): 243.3 ± 21.8 s
CPP score, mean±SEM (morphine CPP [1]; [7]): 226.6 ± 47.2 s
effect on CPP (morphine CPP [1]; [7]): complete inhibition
CPP score (time spent in drug associated-chamber), mean±SEM (morphine CPP [1]; 24 hours): 280.1 ± 17.5 s
CPP score (time spent in drug associated-chamber), mean±SEM (morphine CPP [1]; re-tested 1 week later): 358.9 ± 28.0 s
effect on morphine CPP (morphine CPP [1]): completely blocked
effect on CPP (morphine CPP [1]; two injections (immediately after last conditioning session and 5 hours later), a week later, data not shown): recovered
effect on CPP (morphine CPP [1]; two injections (immediately after last conditioning session and 5 hours later), at 24 hours, data not shown): inhibited
CPP score, mean±SEM (morphine CPP [2]): 425.9 ± 25.3 s
change in CPP score (morphine CPP [2]): No change
CPP score, mean±SEM (morphine CPP [3]; double injection (immediately after reconditioning and 5 hours later), 24 hours): 264.1 ± 13.3 s
CPP score, mean±SEM (morphine CPP [3]; double injection after reconditioning, 1 week): 239.9 ± 34.4 s
CPP score, mean±SEM (morphine CPP [3]; double injection after reconditioning, 2 weeks): 270.1 ± 27.2 s
CPP score, mean±SEM (morphine CPP [3]; double injection after reconditioning, 4 weeks): 278.4 ± 32.5 s
effect on CPP (morphine CPP [3]; double injection after reconditioning, tested 24 hours to 4 weeks): completely and persistently blocked
CPP score, mean±SEM (morphine CPP [3]; [5]): 365.4 ± 45.1 s
CPP score, mean±SEM (morphine CPP [3]; [6]): 261.5 ± 33.9 s
effect on CPP (morphine CPP [4]; morphine and cycloheximide administered in the homecages, conditioning context omitted): No blocking effect
CPP score, mean±SEM (morphine CPP [4]; morphine and cycloheximide administered in the homecages, conditioning context omitted, post-conditioning (24 hr after injection)): 362.22 ± 17.4 s
CPP score, mean±SEM (morphine CPP [4]; only the inhibitor in the homecage, morphine and context omitted, post-conditioning (24 hr after last injection)): 399.8 ± 31.6 s
inhibition of protein synthesis (protein synthesis; double injection, 5 hours apart, at 6 hours): 71%
inhibition of protein synthesis (protein synthesis; single injection, at 1 hour): 70%
inhibition of protein synthesis (protein synthesis; single injection, at 6 hours after injection): 23%
protein synthesis blocked (protein synthesis; two injections, 5 hours apart, for several hours): 70%
